The text below walks through data of paper PMC6744473, “Structure of the thermo-sensitive TRP channel TRP1 from the alga Chlamydomonas reinhardtii” (Nature Communications, 2019).

In experiment [1] the target is T1, crTRP1 (Chlamydomonas reinhardtii, UniProt Q0Z852).
T1 construct: HEK 293S GnTI-; purified in GDN or LMNG; homotetramer; from primer N-terminus MKVAPAPASGQP, C-terminus TAAAGH before the tag
T1 sequence (Q0Z852 1-901): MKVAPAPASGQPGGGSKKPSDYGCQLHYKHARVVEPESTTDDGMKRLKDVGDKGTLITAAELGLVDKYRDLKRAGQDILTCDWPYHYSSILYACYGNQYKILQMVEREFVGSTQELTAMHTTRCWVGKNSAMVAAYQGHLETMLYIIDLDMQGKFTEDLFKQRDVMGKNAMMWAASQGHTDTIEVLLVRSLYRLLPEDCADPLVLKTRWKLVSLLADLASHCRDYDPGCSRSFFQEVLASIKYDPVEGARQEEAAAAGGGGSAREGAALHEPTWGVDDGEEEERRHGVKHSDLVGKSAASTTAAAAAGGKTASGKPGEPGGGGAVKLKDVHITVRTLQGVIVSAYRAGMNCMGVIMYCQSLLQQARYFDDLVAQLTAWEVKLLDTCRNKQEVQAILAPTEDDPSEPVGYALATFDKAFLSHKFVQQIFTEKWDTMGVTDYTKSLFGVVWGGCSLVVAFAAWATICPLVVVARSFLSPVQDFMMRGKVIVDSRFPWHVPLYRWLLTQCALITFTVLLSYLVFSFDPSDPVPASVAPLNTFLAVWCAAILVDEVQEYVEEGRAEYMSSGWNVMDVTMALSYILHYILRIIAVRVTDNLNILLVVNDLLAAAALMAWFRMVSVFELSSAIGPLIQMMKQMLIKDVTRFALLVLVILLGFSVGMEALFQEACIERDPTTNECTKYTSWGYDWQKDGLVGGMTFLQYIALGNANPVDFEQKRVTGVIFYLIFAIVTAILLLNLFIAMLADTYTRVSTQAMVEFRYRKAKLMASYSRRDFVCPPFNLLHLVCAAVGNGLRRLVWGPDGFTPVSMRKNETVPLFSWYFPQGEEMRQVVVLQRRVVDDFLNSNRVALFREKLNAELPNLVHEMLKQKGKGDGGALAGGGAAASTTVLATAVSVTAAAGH
As to the kind of experiment: planar lipid bilayer single-channel recording. It counts as biochemical. To be noted: inhibitor 10 µM; 2.5 µM PIP2, 28 °C, +120 mV.

The target in experiment [2] is T2, crTRP1 (Chlamydomonas reinhardtii, UniProt Q0Z852).
T2 construct: HEK 293S GnTI-; purified in GDN or LMNG; homotetramer; from primer N-terminus MKVAPAPASGQP, C-terminus TAAAGH before the tag
Description: planar lipid bilayer single-channel recording. The experiment is classed as biochemical. To be noted: activator test; deletion borders not given, only primers; loss of activation.

Experiment [3] addresses T1, crTRP1. Description: planar lipid bilayer single-channel recording. The experiment is classed as biochemical. To be noted: activator 2.5 µM; POPG/POPC/POPE bilayer, pH 7.2, 28 °C; diC8 form added to both compartments.
Experiment [4] deals with transient receptor potential (TRP) channel crTRP1 from Chlamydomonas reinhardtii (Chlamydomonas reinhardtii). As to the kind of experiment: cryo-EM structure; crTRP1 in detergent GDN (20 mM Tris pH 8.0, 150 mM NaCl, 0.01% GDN, 1 mM BME, 10 mM TCEP added); grids frozen at 4 °C; 3.53 Å; self-association: homotetramer.
Experiment [5] shares this target. As to the kind of experiment: cryo-EM structure; crTRP1 in MSP2N2 nanodiscs (POPC:POPE 3:1; 150 mM KCl, 20 mM Hepes pH 7.4, 1 µM CaCl2, 20 µM MgCl2, no detergent); grids frozen at 22 °C; 3.45 Å; C2 symmetry; self-association: homotetramer.

Where a name gives a salt, the structure may show the parent alone.

On to `CC(C)(C)c1ccc(NC(=O)N2CCN(c3ncccc3Cl)CC2)cc1` [BCTC, N-(4-tertiarybutylphenyl)-4-(3-cholorphyridin-2-yl)tetrahydropyrazine-1(2 H)-carbox-amide], for which the “Po change at 10 μM” value on crTRP1 [1] was “BCTC) strongly suppressed crTRP1-mediated currents (Fig. 1g, h)”.

`CCCCCCCC(=O)OC[C@H](COP(=O)(O)O[C@@H]1[C@H](O)[C@H](O)[C@@H](OP(=O)(O)O)[C@H](OP(=O)(O)O)[C@H]1O)OC(=O)CCCCCCC` [PIP2, 1-(1,2R-dioctanoylphosphatidyl)inositol-4,5-bisphosphate, trisodium salt]: the “planar lipid bilayer single-channel recording” value was “deleting the entire pre-S1 elbow resulted in a greatly reduced Po and loss of activation by PIP2” at crTRP1 [2]; “Addition of PIP2 readily evoked channel openings” on crTRP1 [3].

“transient receptor potential (TRP) channel crTRP1 from Chlamydomonas reinhardtii (natural protein)”: the stoichiometry N in experiment [4] and in experiment [5] was 4 throughout.

As a reminder, the stoichiometry N is the number of molecules, sites or subunits per partner or assembly.
